In patent US20260285853A1, “COMPOUNDS AND METHODS FOR MODULATING SPLICING” (REMIX THERAPEUTICS INC., priority 2023, published 2026) one finds GI50, IC50 and AC50 data, which are given here for 17 compounds.

Holding throughout (type): cell-based
For experiment [1], the system named is SH-SY5Y (human neuroblastoma) cells. The experiment in a line: Cell viability, Cell Titer Glo 2.0 assay. The settings on record: read-out: Viability SHSY5Y.3 GI50. In short, it runs like this: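 Following a 72 h incubation (37 °C, 5% CO2, 0.1% DMSO final), compound toxicity toward SH-SY5Y cells was quantified by CellTiter-Glo 2.0.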
For orientation: ATP-based viability assays read luminescence as a measure of living cells.

The test system of experiment [2] is MYB mRNA. Put plainly: Gene panel canonical junction qPCR assay, decrease in CJ mRNA, Table 3. In short, it runs like this: (§1)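 Eleven-point dose responses from 10 uM final, 24 h, DMSO ≤0.25%, in A673 or K562 cells. Relative quantification by 2^(−ΔΔCt) against housekeeper and vehicle was converted to percent response over fixed ΔCt windows and fitted to yield IC50.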

The subject of experiment [3] is HTT mRNA. Described as above. Summed up: as §1
The subject of experiment [4] is HTT mRNA. The experiment in a line: Splicing RT-qPCR assay (THP), Table 2A. The settings on record: Table 2A, THP; for AC50: HTT alternative junction (AJ) mRNA, read-out: HTT AJ (AC50, increase in alternative junction mRNA); for IC50: HTT canonical junction (CJ) mRNA, read-out: HTT CJ (IC50, decrease in canonical junction mRNA).
In experiment [5] the test system is MYB mRNA. The experiment in a line: Splicing RT-qPCR assay (THP), Table 2A. The settings on record: Table 2A, THP; for AC50: MYB alternative junction (AJ) mRNA, read-out: MYB AJ (AC50, increase in alternative junction mRNA); for IC50: MYB canonical junction (CJ) mRNA, read-out: MYB CJ (IC50, decrease in canonical junction mRNA). (In general: In qPCR the cycle at which signal appears reflects the starting amount.)

Setting [6] is: decrease in canonical junction (CJ) mRNA, gene panel qPCR, Table 3.
[7] abbreviates: decrease in CJ mRNA levels, canonical junction qPCR, gene panel.

`CNC1CCC(Oc2ccc(C(=O)Nc3cc4cn(C)nc4cc3OC)c3nn(C)cc23)C1` (centres unmarked) [Compound 603]: in experiment [1], the 50% growth inhibitory concentration (GI50) (as a rule, the concentration at which growth is held to half of that of the control) lay within 1000 to 10000 nM. Moreover, the IC50 – broadly, the concentration that gives 50% inhibition – in experiment [2] (setting [6]) is 100 to 1000 nM; in experiment [3] (setting [6]), 1000 to 10000 nM; in experiment [4], 1000 to 10000 nM; in experiment [5] it was 100 to 1000 nM. In addition, the AC50 (commonly the concentration giving half of the maximal activity seen) is 1000 to 10000 nM in experiment [4] and 100 to 1000 nM in experiment [5].
Turning to `CCNC1CCN(c2ccc(C(=O)Nc3cn4cc(C)nc(C)c4n3)c3nn(C)cc23)CC1C` (centres unmarked) [Compound 604], the GI50 in experiment [1] lay in the range of 1000 to 10000 nM. Besides, the IC50 in experiment [2] (setting [6]) was more than 10000 nM; in experiment [3] (setting [6]), 1000 to 10000 nM; in experiment [4], 1000 to 10000 nM; in experiment [5] it was more than 10000 nM. The half-maximal activity concentration (AC50) in experiment [4] was more than 10000 nM; in experiment [5], 1000 to 10000 nM.
`CCNC1CCN(c2ccc(C(=O)Nc3cc4cn(C)nc4cc3OC)c3nn(C)cc23)CC1C` (centres unmarked) [Compound 605]: the concentration for 50% growth inhibition (GI50) in experiment [1] fell in the range of 1000 to 10000 nM. Besides, the IC50 is 100 to 1000 nM in experiment [2] (setting [6]), more than 10000 nM in experiment [3] (setting [6]), more than 10000 nM in experiment [4] and 100 to 1000 nM in experiment [5]. Besides, the AC50 fell in the range of 1000 to 10000 nM in experiment [4] and 100 to 1000 nM in experiment [5].
Turning to `COc1nc2nc(C)cn2cc1NC(=O)c1cnc(N2CCC(NC3CC3)CC2)c2cn(C)nc12` [Compound 608, 4-[4-(cyclopropylamino)-1-piperidyl]-N-(7-methoxy-2-methyl-imidazo[1,2-a]-pyrimidin-6-yl)-2-methyl-pyrazolo-[4,3-c]pyridine-7-carboxamide], the GI50 in experiment [1] is 100 to 1000 nM. Further, the IC50 was less than 100 nM in experiment [2] (setting [7]), 100 to 1000 nM in experiment [3] (setting [7]), 100 to 1000 nM in experiment [4] and less than 100 nM in experiment [5]. Moreover, the AC50 in experiment [4] and in experiment [5] was less than 100 nM each time.
Turning to `Cc1cn2cc(NC(=O)c3cnc(N4CCC(NC5CC5)CC4)c4cn(C)nc34)nc2c(C)n1` [Compound 609, 4-[4-(cyclopropylamino)-1-piperidyl]-N-(6,8-dimethylimidazo [1,2-a]pyrazin-2-yl)-2-methyl-pyrazolo[4,3-c]pyridine-7-carboxamide], the GI50 in experiment [1] was more than 10000 nM. Besides, the IC50 in experiment [2] (setting [7]) is 100 to 1000 nM; in experiment [3] (setting [7]) it was more than 10000 nM; in experiment [4] it was more than 10000 nM; in experiment [5], 100 to 1000 nM. Further, the AC50 in experiment [4] is more than 10000 nM; in experiment [5] it was less than 100 nM.
In the case of `Cc1cn2cc(NC(=O)c3ccc(NC(=O)c4ncc[nH]4)c4[nH]cnc34)cc(F)c2n1` [Compound 610, 2,2,2-trifluoroacetate], the GI50 in experiment [1] was more than 10000 nM. Further, the IC50 in experiment [2] (setting [7]), in experiment [3] (setting [7]), in experiment [4] and in experiment [5] was more than 10000 nM in each case. For the same compound, the AC50 in experiment [4] and in experiment [5] was more than 10000 nM in each case.
Take `CCNC1CCN(c2ccc(C(=O)Nc3cn4cc(C)nc(C)c4n3)c3nc(C)cn23)CC1` [Compound 612, N-(6,8-dimethyl-imidazo-[1,2-a]pyrazin-2-y1)-5-[4-(ethylamino)-1-piperidyl]-2-methyl-imidazo[1,2-a]pyridine-8-carboxamide]: the GI50 in experiment [1] was 1000 to 10000 nM. Further, the IC50 in experiment [2] (setting [7]) was 100 to 1000 nM; in experiment [3] (setting [7]) it was more than 10000 nM; in experiment [4], more than 10000 nM; in experiment [5], 100 to 1000 nM. Moreover, the half-maximal activity concentration (AC50) in experiment [4] was more than 10000 nM; in experiment [5] it was 100 to 1000 nM.
With `Cc1cn2cc(NC(=O)c3ccc(NC(=O)C4CCCN4)c4[nH]cnc34)cc(F)c2n1` (centres unmarked) [Compound 613, N-(8-fluoro-2-methyl-imidazo[1,2-a]pyridin-6-yl)-7-(pyrrolidine-2-carbonylamino)-1H-benzimidazole-4-carboxamide], the GI50 in experiment [1] is more than 10000 nM. In addition, the IC50 in experiment [2] (setting [7]), in experiment [3] (setting [7]), in experiment [4] and in experiment [5] was 1000 to 10000 nM throughout. For the same compound, the AC50 in experiment [4] is more than 10000 nM; in experiment [5] it was 1000 to 10000 nM.
On to `Cc1cn2cc(NC(=O)c3ccc(NC(=O)C4CCNC4)c4[nH]cnc34)cc(F)c2n1` (centres unmarked) [Compound 614, N-(8-fluoro-2-methyl-imidazo[1,2-a]pyridin-6-yl)-7-(pyrrolidine-3-carbonylamino)-1H-benzimidazole-4-carboxamide], for which, in experiment [1], the GI50 is more than 10000 nM. Moreover, the IC50 in experiment [2] (setting [7]), in experiment [3] (setting [7]), in experiment [4] and in experiment [5] was 1000 to 10000 nM throughout. The AC50 in experiment [4] was more than 10000 nM; in experiment [5], 1000 to 10000 nM.
In the case of `CCNC1CCN(c2ccc(C(=O)Nc3cn4cc(C)nc(C)c4n3)n3nc(C)cc23)CC1` [Compound 615, N-(6,8-dimethylimidazo[1,2-a]-pyrazin-2-y1)-4-[4-(ethylamino)-1-piperidyl]-2-methyl-pyrazolo[1,5-a]-pyridine-7-carboxamide], the 50% growth inhibitory concentration (GI50) in experiment [1] lay in the range of 1000 to 10000 nM. For the same compound, the IC50 lay within 100 to 1000 nM in experiment [2] (setting [7]), 1000 to 10000 nM in experiment [3] (setting [7]), 1000 to 10000 nM in experiment [4] and 100 to 1000 nM in experiment [5]. The AC50 in experiment [4] and in experiment [5] was 1000 to 10000 nM each time.
With `Cc1cn2cc(NC(=O)c3ccc(N4CCC(NC5CC5)CC4)c4cc(CO)nn34)nc2c(C)n1` [Compound 616, 4-[4-(cyclopropylamino)-1-piperidyl]-N-(6,8-dimethylimidazo[1,2-a]pyrazin-2-yl)-2-(hydroxymethyl) pyrazolo[1,5-a]-pyridine-7-carboxamide], the GI50 in experiment [1] fell in the range of 1000 to 10000 nM. The IC50 in experiment [2] (setting [7]), in experiment [3] (setting [7]), in experiment [4] and in experiment [5] was 1000 to 10000 nM in each case. The concentration at half-maximal activity (AC50) in experiment [4] and in experiment [5] was 1000 to 10000 nM throughout.
For the compound `Cc1cn2cc(NC(=O)c3ccc(N4CCC(NC5CC5)CC4)c4cc(CF)nn34)nc2c(C)n1` [Compound 617, 4-[4-(cyclopropylamino)-1-piperidyl]-N-(6,8-dimethylimidazo[1,2-a]pyrazin-2-yl)-2-(fluoromethyl)-pyrazolo[1,5-a]pyridine-7-carboxamide], in experiment [1], the 50% growth inhibitory concentration (GI50) fell in the range of 1000 to 10000 nM. Besides, the IC50 in experiment [2] (setting [7]) was 1000 to 10000 nM; in experiment [3] (setting [7]) it was more than 10000 nM; in experiment [4] it was more than 10000 nM; in experiment [5], 1000 to 10000 nM. For the same compound, the AC50 in experiment [4] is more than 10000 nM; in experiment [5] it was 100 to 1000 nM.
Take `COc1cc2nn(C)cc2cc1NC(=O)c1ccc(N2CCC(NC3CC3)CC2)n2cc(C)nc12` [Compound 618, 5-[4-(cyclopropylamino)-1-piperidyl]-N-(6-methoxy-2-methyl-indazol-5-yl)-2-methyl-imidazo[1,2-a]-pyridine-8-carboxamide]: the GI50 in experiment [1] is 1000 to 10000 nM. The IC50 fell in the range of 100 to 1000 nM in experiment [2] (setting [7]), 1000 to 10000 nM in experiment [3] (setting [7]), 1000 to 10000 nM in experiment [4] and 100 to 1000 nM in experiment [5]. In addition, the AC50 in experiment [4] is 1000 to 10000 nM; in experiment [5], less than 100 nM.
Consider `COc1cc2nn(C)cc2cc1NC(=O)c1ccc(N2CCC(NC3CC3)CC2)c2cc(C)nn12` [Compound 619, 4-[4-(cyclopropylamino)-1-piperidyl]-N-(6-methoxy-2-methyl-indazol-5-y1)-2-methyl-pyrazolo[1,5-a]-pyridine-7-carboxamide], for which the GI50 in experiment [1] was 1000 to 10000 nM. The IC50 in experiment [2] (setting [7]) lay in the range of 100 to 1000 nM; in experiment [3] (setting [7]) it was 1000 to 10000 nM; in experiment [4], 1000 to 10000 nM; in experiment [5] it was 100 to 1000 nM. Besides, the AC50 in experiment [4] lay within 1000 to 10000 nM; in experiment [5], 100 to 1000 nM.
Turning to `COCc1cc2c(N3CCC(NC4CC4)CC3)ccc(C(=O)Nc3cc(F)c4nc(C)cn4c3)n2n1` [Compound 620, 4-[4-(cyclopropylamino)-1-piperidyl]-N-(8-fluoro-2-methyl-imidazo[1,2-a]pyridin-6-yl)-2-(methoxymethyl)-pyrazolo[1,5-a]pyridine-7-carboxamide], in experiment [1], the concentration for 50% growth inhibition (GI50) was in the range of 100 to 1000 nM. Moreover, the IC50 in experiment [2] (setting [7]) was less than 100 nM; in experiment [3] (setting [7]), 100 to 1000 nM; in experiment [4] it was 100 to 1000 nM; in experiment [5], less than 100 nM. Besides, the half-maximal activity concentration (AC50) in experiment [4] and in experiment [5] was 100 to 1000 nM throughout.
On to `COCc1cc2c(N3CCC(NC4CC4)CC3)ccc(C(=O)Nc3cc4cn(C)nc4cc3OC)n2n1` [Compound 621, 4-[4-(cyclopropylamino)-1-piperidyl]-2-(methoxymethyl)-N-(6-methoxy-2-methyl-indazol-5-yl)-pyrazolo[1,5-a]-pyridine-7-carboxamide], for which the GI50 in experiment [1] was in the range of 100 to 1000 nM. In addition, the IC50 in experiment [2] (setting [7]) is 100 to 1000 nM; in experiment [3] (setting [7]), 1000 to 10000 nM; in experiment [4] it was 1000 to 10000 nM; in experiment [5], 100 to 1000 nM. Moreover, the AC50 is 100 to 1000 nM in experiment [4] and less than 100 nM in experiment [5].
As for `Cc1cn2cc(NC(=O)c3ccc(N4CCC(NC5CC5)CC4)c4cc(CO)nn34)cc(F)c2n1` [Compound 622], the GI50 in experiment [1] was in the range of 100 to 1000 nM. The IC50 in experiment [2] (setting [7]) is less than 100 nM; in experiment [3] (setting [7]), 100 to 1000 nM; in experiment [4], 100 to 1000 nM; in experiment [5] it was less than 100 nM. In addition, the AC50 in experiment [4] and in experiment [5] was 100 to 1000 nM throughout.
